Data: the supplement of paper PMC10307832

Columns and labels:
Experiment in all cases: relative viability (nuclei count vs DMSO), 5 days (fraction); higher = more cells survive
[1] = compound: CC1CC(=O)N(C2=CN=C(N=C2N1C3CCCC3)NC4=C(C=C(C=C4)C(=O)NC5CCN(CC5)C)OC)C [NPK76-II-72-1] + CC1(C)CCC(c2ccc(Cl)cc2)=C(CN2CCN(c3ccc(C(=O)NS(=O)(=O)c4ccc(N[C@H](CCN5CCOCC5)CSc5ccccc5)c(S(=O)(=O)C(F)(F)F)c4)cc3)CC2)C1 [Navitoclax] (partner 0.5 µM)
How it was run: (§1)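 Values are medians from duplicate plates. Each reflects relative viability, defined as the nuclei count of treated wells over that of vehicle wells. Lung cancer cell lines in 1536-well plates were pin-tool dosed one day after seeding with one drug alone or with a fixed anchor-drug dose plus five library-drug doses (not always all listed) in √10 steps, then fixed, stained and imaged at 4× after 5 days.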

[2] = compound: CC1CC(=O)N(C2=CN=C(N=C2N1C3CCCC3)NC4=C(C=C(C=C4)C(=O)NC5CCN(CC5)C)OC)C [NPK76-II-72-1] + CS(=O)(=O)CCNCc1ccc(-c2ccc3ncnc(Nc4ccc(OCc5cccc(F)c5)c(Cl)c4)c3c2)o1 [Lapatinib] (partner 2 µM)
How it was run: as §1

BI-2536 + Luminespib = compound: CC[C@@H]1C(=O)N(C)c2cnc(Nc3ccc(C(=O)NC4CCN(C)CC4)cc3OC)nc2N1C1CCCC1 [BI-2536] + CCNC(=O)c1noc(-c2cc(C(C)C)c(O)cc2O)c1-c1ccc(CN2CCOCC2)cc1 [Luminespib] (partner 0.01 µM)
How it was run: as §1

BI-2536 + Dasatinib = compound: CC[C@@H]1C(=O)N(C)c2cnc(Nc3ccc(C(=O)NC4CCN(C)CC4)cc3OC)nc2N1C1CCCC1 [BI-2536] + Cc1nc(Nc2ncc(C(=O)Nc3c(C)cccc3Cl)s2)cc(N2CCN(CCO)CC2)n1 [Dasatinib] (partner 0.075 µM)
How it was run: as §1

Cell Line | relative viability ([1]; first compound 0.01 µM) | relative viability ([1]; first compound 0.03162 µM) | relative viability ([1]; first compound 0.1 µM) | relative viability ([1]; first compound 0.3162 µM) | relative viability ([1]; first compound 1 µM) | relative viability ([2]; first compound 0.01 µM) | relative viability ([2]; first compound 0.03162 µM) | relative viability ([2]; first compound 0.1 µM) | relative viability ([2]; first compound 0.3162 µM) | relative viability ([2]; first compound 1 µM) | relative viability (BI-2536 + Luminespib; first compound 0.01 µM) | relative viability (BI-2536 + Luminespib; first compound 0.03162 µM) | relative viability (BI-2536 + Luminespib; first compound 0.1 µM) | relative viability (BI-2536 + Luminespib; first compound 0.3162 µM) | relative viability (BI-2536 + Luminespib; first compound 1 µM) | relative viability (BI-2536 + Dasatinib; first compound 0.01 µM) | relative viability (BI-2536 + Dasatinib; first compound 0.03162 µM) | relative viability (BI-2536 + Dasatinib; first compound 0.1 µM) | relative viability (BI-2536 + Dasatinib; first compound 0.3162 µM) | relative viability (BI-2536 + Dasatinib; first compound 1 µM)
NCI-H1734 | 0.861 | 0.896 | 0.823 | 0.766 | 0.866 | 1.02 | 1.11 | 1.16 | 1.03 | 1.17 | 0.22 | 0.157 | 0.137 | 0.122 | 0.133 | 0.439 | 0.462 | 0.167 | 0.145 | 0.131
NCI-H2126 | 0.82 | 0.857 | 0.874 | 0.799 | 0.881 | 0.686 | 0.806 | 0.755 | 0.733 | 0.823 | 0.855 | 0.512 | 0.392 | 0.278 | 0.32 | 0.659 | 0.58 | 0.294 | 0.26 | 0.224
EMC-BAC-2 | 1.13 | 1.17 | 1.1 | 1.17 | 1.19 | 0.9 | 1.05 | 0.871 | 0.884 | 0.912 | 1.22 | 1.19 | 1.08 | 0.251 | 0.22 | 0.3 | 0.304 | 0.209 | 0.15 | 0.14
NCI-H1993 | 1.05 | 0.969 | 0.884 | 0.706 | 1.01 | 0.729 | 0.92 | 0.906 | 0.822 | 0.788 | 0.856 | 0.747 | 0.521 | 0.602 | 0.515 | 0.688 | 0.577 | 0.51 | 0.514 | 0.485
